Results on 27 compounds are retold here after PubChem BioAssay (NCI).

Some test systems named below: MDA-N; LXFL 529 NSCLC; KM20L2 colon; DMS 273 small cell lung; SNB-78 CNS; HOP-18 NSCLC; M19-MEL melanoma; XF 498 CNS.
Assay in all cases: NCI anticancer screen, dose series, 48 h

Values joined by “and” are separate entries in the source; they are usually repeats but may differ in a detail not shown here. Identical values can stand only once.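 Cells were grown in 96-well plates and exposed to each compound for 48 hours at five concentrations; endpoints were interpolated linearly between bracketing concentrations, or set to the highest concentration if not reached. GI50 = concentration required for 50% inhibition of growth. TGI: total growth inhibition.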

Turning to `CCOP1(=O)OCC2OC(n3cnc4c(N)ncnc43)C(O)C2O1` (stereo unspecified), the TGI in the assay on MDA-N was > 100 µM.

For the compound `CC1(CCCC2(C)CCNC2=O)OCCO1` (stereo unspecified), the TGI in the assay with MDA-N was > 10 µM.

In the case of `COC(=O)C1=CC(=O)C(C(=O)Nc2ccc(OC)cc2)C(c2ccccc2)O1` (stereo unspecified), the TGI in the assay with LXFL 529 NSCLC is 62.4 µM; with KM20L2 colon, > 100 µM; in the assay with DMS 273 small cell lung, > 71 µM; with SNB-78 CNS, > 81.9 µM.

Consider `O=c1[nH]nc(-c2ccccc2)c(-c2ccccc2)c1-n1nc(-c2ccccc2)c2ccccc2c1=O`, for which the TGI in the assay on LXFL 529 NSCLC, in the assay with HOP-18 NSCLC, in the assay with DMS 273 small cell lung, in the assay on SNB-78 CNS and in the assay with M19-MEL melanoma was > 100 µM in each case.

In the case of `[N-]=[N+]=Nc1ccc(S(=O)(=O)Oc2cc(OS(=O)(=O)c3ccc(N=[N+]=[N-])cc3)cc(OS(=O)(=O)c3ccc(N=[N+]=[N-])cc3)c2)cc1`, the TGI with LXFL 529 NSCLC, in the assay with XF 498 CNS, with HOP-18 NSCLC, with KM20L2 colon, in the assay on DMS 273 small cell lung and in the assay with SNB-78 CNS was > 100 µM in each case. Moreover, the TGI in the assay with M19-MEL melanoma was > 100 µM.

In the case of `COC1CCC(=C2C(=O)OC(C)(C)OC2=O)N1` (stereo unspecified), the TGI in the assay with LXFL 529 NSCLC, in the assay on XF 498 CNS, in the assay with HOP-18 NSCLC, with KM20L2 colon, in the assay on DMS 273 small cell lung and in the assay on M19-MEL melanoma was > 100 µM in each case.

Regarding `COc1c2occc2c(OC)c2c(=O)c(S(=O)(=O)NC(=O)Nc3ccc(Cl)cc3)coc12`, the TGI with MDA-N is > 10 µM.

On to `COC(=O)C1Cc2c([nH]c3ccccc23)[C@H](CC(C)C)N1` (stereo partly specified), for which the TGI with LXFL 529 NSCLC, in the assay on XF 498 CNS, with HOP-18 NSCLC, with KM20L2 colon, with DMS 273 small cell lung and in the assay on SNB-78 CNS was > 100 µM throughout. Further, the TGI in the assay on M19-MEL melanoma was > 100 µM.

For `CC(=O)OC1COC(N2C(=O)C(=O)c3c(C)cc(Cl)nc32)C(OC(C)=O)C1OC(C)=O` (stereo unspecified), the TGI with LXFL 529 NSCLC, in the assay with XF 498 CNS, in the assay with HOP-18 NSCLC, in the assay on KM20L2 colon, in the assay on DMS 273 small cell lung and in the assay with SNB-78 CNS was > 100 µM throughout. The TGI in the assay on M19-MEL melanoma was > 100 µM.

As for `CC(=O)NNc1nc(C)c(C(/C=C/c2ccc(/C=C/C(=N\NC(=O)c3ccncc3)c3sc(NNC(C)=O)nc3C)cc2)=N/NC(=O)c2ccncc2)s1`, the TGI in the assay with LXFL 529 NSCLC, in the assay on KM20L2 colon, in the assay on SNB-78 CNS and in the assay with M19-MEL melanoma was > 100 µM throughout.

Turning to `CCCCNC(=S)Nn1c(-c2ccccc2)nc2ccccc2c1=O`, the TGI in the assay with LXFL 529 NSCLC, in the assay on HOP-18 NSCLC, in the assay with DMS 273 small cell lung and in the assay on M19-MEL melanoma was > 100 µM each time.

`COc1ccc(CN(O)C2C(CO)OC(n3cc(I)c(=O)[nH]c3=O)C2O)cc1` (stereo unspecified): the TGI with LXFL 529 NSCLC, with XF 498 CNS, in the assay with HOP-18 NSCLC, in the assay on KM20L2 colon, in the assay on DMS 273 small cell lung and in the assay with SNB-78 CNS was > 100 µM in each case. The TGI with M19-MEL melanoma is > 100 µM.

In the case of `COC1CC(OC2OC(CO)C(O)C(O)C2O)/C(=C\C#N)C(O)C1OC` (stereo unspecified), in the assay on MDA-N, the TGI is > 100 µM.

For `CC(=O)NC1(C)CCC(C(C)(C)NC(C)=O)CC1` (stereo unspecified), the TGI in the assay with MDA-N is > 100 µM.

Take `CC(=O)Oc1c(-c2ccccc2)[nH]c2cc([N+](=O)[O-])c(/C(Cl)=C/c3ccccc3)cc12`: the TGI in the assay with LXFL 529 NSCLC amounted to 18.1 µM; in the assay on XF 498 CNS, 19.3 µM; in the assay on KM20L2 colon it was 18.6 µM; in the assay with SNB-78 CNS it was 52.6 µM; with M19-MEL melanoma it was 19.4 µM.

Turning to `C[N+](C)(C)CC(=O)N/N=C(/C=C/c1ccccc1)CC1OC(=O)c2ccccc21` (stereo unspecified), the TGI in the assay on LXFL 529 NSCLC, with XF 498 CNS, with HOP-18 NSCLC, in the assay on KM20L2 colon, in the assay with DMS 273 small cell lung and with SNB-78 CNS was > 100 µM each time. For the same compound, in the assay with M19-MEL melanoma, the TGI was > 100 µM.

As to `COc1ccc(C2SC(N)=Nc3c2c(C)nn3C(=O)c2ccncc2)cc1` (stereo unspecified), in the assay with MDA-N, the TGI is > 100 µM.

On to `O=P(O)(O)OC1C(OP(=O)(O)O)C(OP(=O)(O)O)C(OP(=O)(O)O)C(OP(=O)(O)O)C1OP(=O)(O)O` (stereo unspecified), for which, in the assay with MDA-N, the GI50 is > 2000 µM and the TGI is > 2000 µM.

Turning to `O=C1CCCC1C(=O)Nc1ccc2ccccc2c1` (stereo unspecified), the TGI with MDA-N was > 100 µM.

With `COC(=O)C1=C(O)C(O)=C(C(=O)OC)CC1`, the TGI with LXFL 529 NSCLC, in the assay on XF 498 CNS, in the assay on HOP-18 NSCLC, in the assay on DMS 273 small cell lung, with SNB-78 CNS and in the assay with M19-MEL melanoma was > 100 µM each time.

As to `CC(C)c1ccc2c(c1)CCC1C(C)(C)[C@@H](O)CC[C@]21C` (stereo partly specified), the TGI was > 100 µM in the assay on LXFL 529 NSCLC; 44.4 µM with KM20L2 colon; > 100 µM in the assay with DMS 273 small cell lung; > 100 µM in the assay on SNB-78 CNS; 44.2 µM with M19-MEL melanoma.

On to `CN(NC(=O)/C(=C/c1ccc(O)cc1)NC(=O)c1ccccc1)c1ccnc2cc(Cl)ccc12`, for which the TGI with MDA-N was found to be 32.2 µM.

Regarding `COc1ccc(NC(=O)CC/C(CC(=O)c2ccco2)=N/Nc2ccc([N+](=O)[O-])cc2[N+](=O)[O-])cc1`, the TGI was > 100 µM in the assay with LXFL 529 NSCLC; 81.4 µM in the assay with XF 498 CNS; > 100 µM in the assay on HOP-18 NSCLC; > 100 µM in the assay on KM20L2 colon; > 100 µM in the assay on DMS 273 small cell lung; > 100 µM in the assay with SNB-78 CNS. Besides, in the assay with M19-MEL melanoma, the TGI was > 100 µM.

Take `CC/C(=C(\c1ccccc1)c1ccc(OCCN(C)C)cc1)c1ccccc1`: in the assay with MDA-N, the GI50 is > 25 µM and 6.53 µM; the TGI was > 25 µM and 8.31 µM and 9.59 µM.

With `CC(C)NC(=O)OCc1nnn2c1C(OC(=O)NC(C)C)CC2` (stereo unspecified), the TGI with LXFL 529 NSCLC, in the assay on XF 498 CNS, in the assay with HOP-18 NSCLC, in the assay with KM20L2 colon, in the assay with DMS 273 small cell lung and in the assay with SNB-78 CNS was > 100 µM in each case. In the assay with M19-MEL melanoma, the TGI is > 100 µM.

As for `N/C(=N\N=C\c1ccc2c(c1)OCO2)NO`, the TGI in the assay with MDA-N is > 100 µM.

As for `Cc1ccc(S(=O)(=O)NCCCN(CCCNS(=O)(=O)c2ccc(C)cc2)S(=O)(=O)c2ccc(C)cc2)cc1`, the TGI in the assay on LXFL 529 NSCLC, in the assay on KM20L2 colon, with DMS 273 small cell lung, in the assay on SNB-78 CNS and in the assay with M19-MEL melanoma was > 100 µM throughout.
